This is an account of results in US20050054637A1, “Substituted piperazine cyclohexane carboxilic acid amides and the use thereof” (priority 2001, published 2005).

One assay has as its system mongrel dogs. Put plainly: In vivo test model for adenosine-uptake inhibitors: reactive hyperaemia after coronary occlusion in anaesthetized dogs. Particulars: 10 μg/kg i.v., reactive hyperaemia after four-minute occlusion. Set-up: species or system dog. As to the method: 2. In vivo Test Model for Testing Adenosine-Uptake Inhibitors
Adult mongrel dogs (body weight 20-30 kg) are initially anaesthetized using a combination of trapanal 500 mg and alloferin 55 mg. Anaesthesia is maintained by infusion of a mixture of fentanyl 0.072 mg/kg, alloferin 0.02 mg/kg and dihydrobenzpyridyl 0.25 mg/kg×min. The animals are intubated and ventilated with a mixture of O2/N2O (ratio 1:5) using a Dräger ventilation pump at 16 breaths per min and a volume of 18-24 ml/kg. The body temperature is maintained at 38° C.±0.1° C. Arterial blood pressure is measured via a catheter in the femoral artery. A thoractomy is carried out on the left side at the fifth intercostal space. The lung is pushed back and fixed and a cut is made in the pericardium. A proximal section of the LAD distally to the first diagonal branch is exposed and a calibrated electromagnetic flow sensor (from Scalar) is placed around the vessel and attached to a flow meter (from Scalar, model MDL 1401). Distally to the flow sensor, a mechanical occluder is attached such that there are no branches in between flow sensor and occluder.
Using a catheter in the femoral vein, blood samples are taken and substances (10 μg/kg i.v.) are administered. A peripheral ECG is recorded using needles which are fixed subcutaneously. A microtip pressure manometer (from Millar, model PC-350) is pushed through the left atrium to measure the pressure in the left ventricle. Measurement of the heart frequency is triggered by the R wave of the ECG. During the entire experiment, the haemodynamic parameters and the coronary flow are recorded using a multi-event recorder.
A four-minute occlusion causes reactive hyperaemia. The difference between the coronary flow under control conditions and the maximum flow during the reactive hyperaemia is measured. The time which is required to achieve half of this maximum flow in the drop is a suitable parameter to assess the reaction hyperaemia.
After a stabilization period of one hour, the experiment is started with a four-minute occlusion. Thirty minutes later, the substance is administered (i.v.) which is, after two minutes, followed by re-occlusion. The reactive hyperaemia after verum and placebo is compared.

Assay [1] relates to adenosine uptake in rabbit erythrocytes. Nature of the assay: Inhibition of the adenosine uptake in rabbit erythrocytes (functional adenosine-uptake test). The format is cell-based. Particulars: Oryctolagus cuniculus, 0.25 h; rabbit erythrocyte preparation, 30° C., adenosine remaining 15 min after addition of adenosine. As to the method:
1. Inhibition of the Adenosine Uptake in Rabbit Erythrocytes by the Compounds According to the Invention
The capability of substnaces to influence the adenosine-uptake system is investigated by determining the inhibitory effect of the substances on functional adenosine uptake.
For the functional adenosine-uptake test, an erythrocyte preparation from rabbit blood is used. The blood is drawn intravenously using citrate (3 ml Monovette 9NC from Sarstedt) as anticoagulant. The blood is centrifuged at 3000 g for 5 min and the erythrocytes are suspended in 10 mM 3-(N-morpholino)propanesulphonic acid buffer (MOPS)/0.9% aqueous sodium chloride solution pH 7.4. The suspension is diluted to one hundredth of the original blood volume. In each case, 990 μl of the suspension are admixed with 10 μl of a suitable concentration of the substance to be examined, and the mixture is incubated at 30° C. for 5 min. 5 μl of a 4 mM adenosine solution are then added, and the mixture is incubated at 30° C. for another 15 min. The samples are then centrifuged at 3000 g for 5 min and in each case 700 μl of the supernatant are mixed with 28 μl of 70% strength HClO4, allowed to stand in an ice bath for 30 min and centrifuged at 16 000 g for 3 min, and 350 μl of the sample are neutralized using 30 μl of 5 N NaOH. 50 μl of the sample are applied to a column (Waters Symmetry C18 5 μm, 3.9×150 mm). A Spherisorb ODS II 5 μm, 4.6×10 mm column is used as precolumn The mobile phase used is a gradient of 50 mM KH2PO4/5 mM tributylamine pH 7 (mobile phase A) and a mixture of mobile phase A/methanol 1:1 (mobile phase B). The gradient is from 10% to 40% B, at a flow rate of 0.5 ml/min. The adenosine which is present is quantified by its absorption at 260 nm, as are the hypoxanthine and inosine formed.
Table 1 below lists the IC50 values obtained using this test: […]

On to `NC(=O)[C@@H](NC(=O)[C@@H]1CCCC[C@H]1N1CCN(C(=O)c2ccccc2)CC1)c1ccccc1` [Example 1, (1R,2R)-N-[(1S)-2-Amino-2-oxo-1-phenylethyl]-2-(4-benzoyl-1-piperazinyl)cyclo-hexanecarboxamide], for which the “Increase of coronary blood flow in %” value with mongrel dogs worked out at 258%. In assay [1], the midpoint of inhibition, the IC50, lay at 30 nM.
`NC(=O)[C@@H](NC(=O)[C@@H]1CCCC[C@H]1N1CCN(C(=O)c2ccccc2)CC1)c1ccc(F)cc1` [Example 2, (1R,2R)-N-[(1S)-2-Amino-2-oxo-1-(4-fluorophenyl)ethyl]-2-(4-benzoyl-1-piperazin-yl)cyclohexanecarboxamide]: in assay [1], half-maximal inhibition (IC50) required 30 nM.
Same read-out and setting: the same measure for `NC(=O)[C@@H](NC(=O)[C@@H]1CCCC[C@H]1N1CCN(C(=O)c2n[nH]c3ccccc23)CC1)c1ccccc1` [Example 3, (1R,2R)-N-[(1S)-2-Amino-2-oxo-1-phenylethyl]-2-[4-(1H-indazol-3-ylcarbonyl)-1-piperazinyl]cyclohexanecarboxamide]: 30 nM.
In turn, `NC(=O)[C@@H](NC(=O)[C@@H]1CCCC[C@H]1N1CCN(Cc2ccccc2)CC1)c1ccc(F)cc1` [Example 8, (1R,2R)-N-[(1S)-2-Amino-1-(4-fluorophenyl)-2-oxoethyl]-2-(4-benzyl-1-piperazinyl)cyclohexanecarboxamide] had an IC50 in assay [1] of 80 nM.
With `NC(=O)[C@@H](NC(=O)[C@@H]1CCCC[C@H]1N1CCN(C(=O)c2ccc(F)cc2F)CC1)c1ccccc1` [Example 16, (1R,2R)-N-[(1S)-2-Amino-2-oxo-1-phenylethyl]-2-[4-(2,4-difluorobenzoyl)-1-piperazinyl)cyclohexanecarboxamide], in the assay on mongrel dogs, the “Increase of coronary blood flow in %” value is 326%. In addition, in assay [1], the IC50 came out at 30 nM.
For `Cc1ccc(C(=O)N2CCN([C@@H]3CCCC[C@H]3C(=O)N[C@H](C(N)=O)c3ccccc3)CC2)s1` [Example 17, (1R,2R)-N-[(1S)-2-Amino-2-oxo-1-phenylethyl]-2-{4-[(5-methyl-2-thienyl)-carbonyl]-1-piperazinyl}cyclohexanecaiboxamide], in that order: 250% and 20 nM.
As to `NC(=O)[C@@H](NC(=O)[C@@H]1CCCC[C@H]1N1CCN(C(=O)c2ccc[nH]2)CC1)c1ccccc1` [Example 18, (1R,2R)-N-[(1S)-2-Amino-2-oxo-1-phenylethyl]-2-{4-[(2-pyrrolyl)carbonyl]-1-piperazinyl}cyclohexanecarboxamide], the “Increase of coronary blood flow in %” value in the assay with mongrel dogs came to 347%. This compound also returned an IC50 in assay [1] of 30 nM.
In assay [1], `NC(=O)[C@@H](NC(=O)[C@@H]1CCCC[C@H]1N1CCN(C(=O)OC2CCCC2)CC1)c1ccccc1` [Example 21] displayed an IC50 of 15 nM.
The same measure, in the same setting: under `NC(=O)[C@@H](NC(=O)[C@@H]1CCCC[C@H]1N1CCN(C(=O)c2ccccc2F)CC1)c1ccccc1` [Example 27] stands 20 nM; under `NC(=O)[C@@H](NC(=O)[C@@H]1CCCC[C@H]1N1CCN(C(=O)c2ccc3c(c2)OCO3)CC1)c1ccccc1` [Example 66], 20 nM.

The term IC50 denotes the concentration that gives 50% inhibition. Lower therefore signals inhibition by little substance.
